Data on two compounds can be found in ChEMBL document CHEMBL4138287, “Total Synthesis of the Flavonoid Natural Product Houttuynoid A” (J Nat Prod, 2018).

The subject of this test is Herpesviridae sp. The experiment in a line: Antiviral activity against Herpes simplex virus infected in African green monkey Vero cells measured at 24 hrs post infection at 2 mins interval for 25 times. Format: functional, organism-based.

In the case of `CCCCCCCCCc1cc2c(-c3oc4cc(O)cc(O)c4c(=O)c3O[C@@H]3O[C@H](CO)[C@H](O)[C@H](O)[C@H]3O)ccc(O)c2o1`, the IC50 (usually the concentration needed to halve the response being measured) was determined as 57.7 µM.
For `CCCCCCCCCc1oc2c(O)ccc(-c3oc4cc(O)cc(O)c4c(=O)c3O[C@@H]3O[C@H](CO)[C@H](O)[C@H](O)[C@H]3O)c2c1C=O`, the IC50 stood at 23.5 µM.
